Structures can show the parent of a compound that is named as a salt.
Legend:
[1] = Solubility in water and olive oil (Method III)
Protocol: a) Preparation of olive oil or aqueous solutions. 1 ml of olive oil or I ml of double-distilled water (or dilute NaOH pH=7.6) was added to 1 mg or 10 mg or 50 mg of the respective compound at 37° C. and it was checked whether a clear solution was obtained. The optionally centrifuged and decanted olive oil solutions were heated for 5 minutes using a Bunsen burner and the degree of browning of the olive oil was determined. […] Samples having poor protective action are given a (*) in the table (see below).

[2] = system: thrombus formation in rats; assay: Laser-induced thrombosis in rats in vivo (Method VIII); parameters: species or system rat; details: 30 mg/kg oral, laser induction 60 min after administration
Protocol: The experimental procedure was carried out in every detail as described in U.S. Pat. No. 4,694,024. Laser induction took place 60 min after oral administration of the antioxidants.

[3] = Use as an additive in frying fat: color change of butter (Method II); details: 1% (weight/weight) in butter
Protocol: Use as an additive in frying fat: Samples of commercially available German non-blended butter were melted and in each case 1% (weight/weight) of BHT (=butylated hydroxytoluene) or 2,6-di-tert.-butyl-4-(7-nonynoyl)-phenol [=compound according to Example 17] or ethyl 2-(3,5-di-tert.-butyl-4-hydroxybenzyl)-3-oxo-docosanoate [=compound according to Example 18] or N-octadecyl-DL-α-lipoic acid amide [=compound according to Example 52] was added and the mixture was used in the customary manner as frying fat. […] The better protective action of the […] probably comes about as a result of their lipophilic side chains and, therefore, improved lipophilic interaction. The advantageous action of N-octadecyl-DL-α-lipoic acid amide is particularly surprising, although this preparation has no recognizable antioxidative component.

[4] = Inhibition of the oxidation of lipids: SA-PC in cyclohexane (Method IV); assay type: biochemical; details: 37° C., absorption at 234 nm
Protocol: Oxidation of 1-stearoyl-2-arachidonoylphosphatidylcholine (SA-PC) in cyclohexane (37° C.). 100 mcl of a SA-PC solution (10 mg/ml of CHCl3) were evaporated by blowing (argon) and the residue was taken up in 1 ml of cyclohexane. After adding an amount of antioxidant which would also dissolve in olive oil (cf. Table 1), the absorption was measured at 234 nm (Perkin Elmer 5528 spektrophotometer, Uberlingan, FRG) and the solvent was then evaporated by blowing with air. After a fur%her 24 hours standing in an open vessel, the residue was again dissolved in i ml of cyclohexane and the absorption at 234 nm was measured as a measurement of the oxidized SA-PC.

[5] = olive oil, organic solvent or mixture

| Compound | solubility [1, 5] [µg/mL] | solubility ([1]; water) [µg/mL] | Reduction of thrombus formation [2] [%] | color change of frying fat after the frying procedure [3] | prevention of the oxidation of SA-PC, reduced dithiol vs. corresponding oxidized dithio compounds [4] | suitability for use in aqueous oil emulsions owing to solubility properties [1] |
| --- | --- | --- | --- | --- | --- | --- |
| O=C(O)CCCC[C@@H](S)CCS (racemic) [Dihydrolipoic acid, Na salt, Dihydrolipoic acid, reference compound] | < 100 | > 10000 |  |  |  |  |
| CCCCCCCCCCCCCCCCCCNC(=O)CCCCC1CCSS1 (racemic) [Example 52, N-octadecyl-DL-α-lipoic acid amide] | > 10000 | < 100 | 14 | substantially lower color change | possible to prevent the oxidation of SA-PC Just as effectively |  |
| O=C(O)C(S)C(S)C(=O)O (stereo not shown) [2,3-Mercaptosuccinic acid, reference compound] | < 100 | > 10000 |  |  |  |  |
| CC(C)(Sc1cc(C(C)(C)C)c(O)c(C(C)(C)C)c1)Sc1cc(C(C)(C)C)c(O)c(C(C)(C)C)c1 [4,4'-(Isopropylidenedithio)bis[2,6-di-tert.-butylphenol], reference compound] |  |  | 6 |  |  |  |
| Cc1c(C)c2c(c(C)c1O)CCC(C)(C(=O)O)O2 (stereo not shown) [6-Hydroxy-2,5,7,8-tetramethylchroman-2-carboxylic acid, reference compound] | < 100 | > 10000 |  |  |  |  |
| CCCCCCCCCCCCCCCC(=O)OC[C@H](O)[C@H]1OC(=O)C(O)=C1O [Ascorbyl palmitate, reference compound] | > 100 | < 100 |  |  |  |  |
| Cc1cc(C(C)(C)C)c(O)c(C(C)(C)C)c1 [BHT, butylated hydroxytoluene, reference compound] | > 10000 | < 100 |  | transformed into a viscous, dark brown material |  |  |
| O[C@H](CS)[C@@H](O)CS [Dithioerythritol, reference compound] | < 100 | > 10000 |  |  |  |  |
| Cc1c(C)c2c(c(C)c1O)CCC(C)(C(=O)NCCCNC(=O)CC[C@@H](C)[C@H]1CC[C@H]3[C@@H]4[C@H](O)C[C@@H]5C[C@H](O)CC[C@]5(C)[C@H]4C[C@H](O)[C@]13C)O2 (stereo partly shown) [Example 1] | > 10000 | > 100 | 16 |  |  |  |
| Cc1c(C)c2c(c(C)c1O)CCC(C)(C(=O)NCCO[C@H]1CC[C@@]3(C)[C@@H](C1)C[C@@H](O)[C@@H]1[C@@H]3C[C@H](O)[C@]3(C)[C@@H]([C@H](C)CCC(=O)O)CC[C@@H]13)O2 (stereo partly shown) [Example 3] | > 1000 | < 100 | 11 |  |  |  |
| CCCCCCNC(=O)C1(C)CCc2c(C)c(O)c(C)c(C)c2O1 (stereo not shown) [Example 4] | > 10000 | > 100 |  |  |  |  |
| CCCCCCC(=O)NCCCNC(=O)C1(C)CCc2c(C)c(O)c(C)c(C)c2O1 (stereo not shown) [Example 5] | > 10000 | < 100 |  |  |  |  |
| CCCCCCCCCCCCCCCCCCNC(=O)C1(C)CCc2c(C)c(O)c(C)c(C)c2O1 (stereo not shown) [Example 6] | > 10000 | < 100 |  |  |  |  |
| CCCCCCCCCCCCCCCC(=O)NCCCNC(=O)C1(C)CCc2c(C)c(O)c(C)c(C)c2O1 (stereo not shown) [Example 7] | > 10000 | < 100 |  |  |  |  |
| Cc1c(C)c2c(c(C)c1O)CCC(C)(C(=O)NC1CCCCC1)O2 (stereo not shown) [Example 8] | > 10000 | < 100 |  |  |  |  |
| CC(C)CCC[C@@H](C)[C@H]1CC[C@H]2[C@@H]3CC=C4C[C@@H](OCCOCc5cc(C(C)(C)C)c(O)c(C(C)(C)C)c5)CC[C@]4(C)[C@H]3CC[C@]12C [Example 13] | > 50000 | < 100 | 17 |  |  |  |
| CCCCCCC#CC(=O)c1cc(C(C)(C)C)c(O)c(C(C)(C)C)c1 [Example 17] | > 50000 | < 100 |  | substantially lower color change |  |  |
| CCCCCCCCCCCCCCCCCCCC(=O)C(Cc1cc(C(C)(C)C)c(O)c(C(C)(C)C)c1)C(=O)OCC (stereo not shown) [Example 18, ethyl 2-(3,5-di-tert.-butyl-4-hydroxybenzyl)-3-oxo-docosanoate] | > 50000 | < 100 |  | substantially lower color change |  |  |
| CC(C)(C)c1cc(C2SCCC(CCCCC(=O)O)S2)cc(C(C)(C)C)c1O (stereo not shown) [Example 19] | > 50000 | < 100 |  |  |  |  |
| CC(C)(C)OC(=O)CCCCC(CCSCc1cc(C(C)(C)C)c(O)c(C(C)(C)C)c1)SCc1cc(C(C)(C)C)c(O)c(C(C)(C)C)c1 (stereo not shown) [Example 20] | > 50000 | < 100 |  |  |  |  |

| Compound | solubility [1, 5] [µg/mL] | solubility ([1]; water) [µg/mL] | Reduction of thrombus formation [2] [%] | color change of frying fat after the frying procedure [3] | prevention of the oxidation of SA-PC, reduced dithiol vs. corresponding oxidized dithio compounds [4] | suitability for use in aqueous oil emulsions owing to solubility properties [1] |
| --- | --- | --- | --- | --- | --- | --- |
| CCCCCCCCCCCCCCCCCCOCC(O)COCc1cc(C(C)(C)C)c(O)c(C(C)(C)C)c1 (stereo not shown) [Example 21] | > 50000 | < 100 |  |  |  |  |
| CCCCCCCCCCCCCCCCCCOCC(CO)OC(=O)c1cc(C(C)(C)C)c(O)c(C(C)(C)C)c1 (stereo not shown) [Example 22] | > 50000 | < 100 |  |  |  |  |
| CCCCCCCCCCCCCCCCCCOCC(O)COC(=O)c1cc(C(C)(C)C)c(O)c(C(C)(C)C)c1 (stereo not shown) [Example 23] | > 50000 | < 100 |  |  |  |  |
| CCCCCCCCCCCCCCCCCCCC(O)C(Cc1cc(C(C)(C)C)c(O)c(C(C)(C)C)c1)C(=O)OCC (stereo not shown) [Example 24] | > 50000 | < 100 |  |  |  |  |
| CCCCCCCCCCCCCCCCCCCC(O)C(CO)Cc1cc(C(C)(C)C)c(O)c(C(C)(C)C)c1 (stereo not shown) [Example 25] | > 50000 | < 100 |  |  |  |  |
| CCCCCCCCCCCCCCCCCCCC1OC(C)(C)OCC1Cc1cc(C(C)(C)C)c(O)c(C(C)(C)C)c1 (stereo not shown) [Example 26] | > 50000 | < 100 |  |  |  |  |
| CCCCCCCCCCCCCCCCCCCC(O)C(Cc1cc(C(C)(C)C)c(O)c(C(C)(C)C)c1)C(=O)O (stereo not shown) [Example 27] | > 1000 | > 10000 |  |  |  |  |
| CCCCCCCCCCCCCCCCCCCC(=O)C(=Cc1cc(C(C)(C)C)c(O)c(C(C)(C)C)c1)C(=O)OCC [Example 28] | > 50000 | < 100 |  |  |  |  |
| CC(C)CCC[C@@H](C)[C@H]1CC[C@H]2[C@@H]3CC=C4C[C@@H](OCCOC5=C(O)[C@@H]([C@@H](O)CO)OC5=O)CC[C@]4(C)[C@H]3CC[C@]12C [Example 33] | > 1000 | < 100 | 13 |  |  |  |
| CCCCCCCCCCCCCCCCCC(=O)OC[C@H](O)[C@H]1OC(=O)C(OP(=O)(OCC)OCC)=C1O [Example 34] | > 1000 | < 100 |  |  |  |  |
| CCCCCCCCCCCCCCCCCC(=O)OC[C@H](OC(=O)CCCCCCCCCCCCCCCCC)[C@H]1OC(=O)C(OP(=O)(OCC)OCC)=C1O [Example 35] | > 1000 | < 100 |  |  |  |  |
| CCCCCCCCCCCCCCCCCCC(COCCOC1=C(O)C(C(O)CO)OC1=O)COCCOC1=C(O)C(C(O)CO)OC1=O (stereo not shown) [Example 36] | > 10000 | > 10000 | 17 |  |  | outstandingly suitable for use in aqueous oil emulsions |
| CCCCCCCCCCCCCCCCCCP(=O)(OC1=C(O)C([C@@H](O)CO)OC1=O)OC1=C(O)C([C@@H](O)CO)OC1=O (stereo partly shown) [Example 37] | > 1000 | > 10000 |  |  |  |  |
| CC(C)CCCC(C)C1CC[C@H]2C3CC=C4CC(OC(=O)CCCCC(S)CCS)CC[C@]4(C)[C@H]3CC[C@]12C (stereo partly shown) [Example 46] | > 50000 | < 100 |  |  |  |  |
| CC(CCC(=O)NCCCNC(=O)CCCCC(S)CCS)C1CC[C@H]2C3CC[C@@H]4C[C@H](O)CC[C@]4(C)[C@H]3C[C@H](O)[C@]12C (stereo partly shown) [Example 48] | > 50000 | < 100 |  |  |  |  |
| CCCCCCCCCCCCCCCCCCOC(=O)CCCCC(S)CCS (stereo not shown) [Example 50] | > 50000 | < 100 |  |  | possible to prevent the oxidation of SA-PC Just as effectively |  |
| CCCCCCCCCCCCCCCCCCOC(=O)CCCCC1CCSS1 (stereo not shown) [Example 51] | > 50000 | < 100 |  |  | possible to prevent the oxidation of SA-PC Just as effectively |  |
| CC(C)CCCC(C)C1CC[C@H]2C3CC=C4CC(OC(=O)CCCCC5CCSS5)CC[C@]4(C)[C@H]3CC[C@]12C (stereo partly shown) [Example 53] | > 50000 | < 100 |  |  |  |  |
| O=C(O)c1cc(O)c(O)c(O)c1 [Gallic acid, reference compound] | < 100 | > 10000 |  |  |  |  |

Reference: patent US5508275A, “Lipid-selective antioxidants and their preparation and use” (Hoechst Aktiengesellschaft, priority 1990, dated 1996)
